Laboratory results reported in patent US4252807A, “Fused pyrimidine derivatives and antiatherosclerotic methods of treatment with them” (Chincin Gyogyszer es Vegyeszeti Termekek Gyara Rt., priority 1976, dated 1981).

Assays:
[1] = test system: cholesterin-fed rabbit atherosclerosis model; test: cholesterin-fed rabbit atherosclerosis model (Table 1); format: in vivo; parameters: Serum triglyceride: unit not given here; conditions: for Serum triglyceride / Serum total cholesterin / Aorta total cholesterin / Aorta total lipid / Serum total lipid: rabbit, cholesterin-fed; for Serum triglyceride: Control-1 75, Control-2 103; for Serum total cholesterin: Control-1 326, Control-2 1504; for Aorta total cholesterin: Control-1 331, Control-2 921; for Aorta total lipid: Control-1 1928, Control-2 2575; for serum lipid, aorta lipid and cholesterin lipid level: in words, from the data of Table 1 (rabbit, 50 mg/kg)
normolyphaemic rats = test: normolyphaemic rats, serum lipids (Table 2); format: in vivo, rat; parameters: Serum triglyceride: unit not given here; conditions: for Serum cholesterine: Control 103; for Serum triglyceride: Control 185.1
[2] = dose 50 mg/kg, Control-1 (normal feed) 658, Control-2 (cholesterin) 2374

## CCOC(=O)c1cnc2n(c1=O)C(C)CCC2=Cc1cccn1C (centres unmarked) [A, 6-methyl-9-(N-methyl-2-pyrrolyl)-methylene-4-oxo-6,7,8,9-tetrahydro-4H-pyrido(1,2a) pyrimidine-3-carboxylic acid ethylester]
[1]; dose 50 mg/kg
  Serum triglyceride: 121
  Serum total cholesterin: 1419
  Aorta total cholesterin: 958
  Aorta total lipid: 2496
[1]; [2]
  Serum total lipid: 2309

## 6-methyl-9-chloro-phenyl)-methylene-4-oxo-6,7,8,9-tetrahydro-4H-pyrido(1,2a)pyrimidine-3-carboxylic acid ethylester
[1]; dose 50 mg/kg
  Serum triglyceride: 190
  Serum total cholesterin: 1531
  Aorta total cholesterin: 365
  Aorta total lipid: 2461
[1]; [2]
  Serum total lipid: 2547

## CCOC(=O)c1cnc2n(c1=O)CCCC2CC(=O)O (centres unmarked) [G, 9-(carboxyl-methyl)-4-oxo-6,7,8,9-tetrahydro-4H-pyrido-(1,2a)pyrimidine-3-carboxylic acid ethylester]
Normolyphaemic rats; 50 mg/kg p.o.
  Serum cholesterine: 88.0
  Serum triglyceride: 127.5

## CCOC(=O)c1cnc2n(c1=O)C(C)CCC2CC(=O)O (centres unmarked) [D, 6-methyl-3-ethoxycarbonyl-4-oxo-6,7,8,9-tetrahydro-4H-pyrido(1,2a)pyrimidine-9-yl-acetic acid]
[1]
  serum lipid, aorta lipid and cholesterin lipid level: significant decrease
[1]; dose 50 mg/kg
  Serum triglyceride: 97
  Serum total cholesterin: 972
  Aorta total cholesterin: 186
  Aorta total lipid: 1355
[1]; [2]
  Serum total lipid: 1638

## CCOC(=O)C=C1CCC(C)n2c1ncc(C(=O)OCC)c2=O (centres unmarked) [C, 6-methyl-9-(ethoxycarbonyl-methylene)-4-oxo-6,7,8,9-tetrahydro-4H-pyrido(1,2a)-purimidine-3-carboxylic acid ethylester]
[1]
  serum lipid, aorta lipid and cholesterin lipid level: significant decrease
[1]; dose 50 mg/kg
  Serum triglyceride: 119
  Serum total cholesterin: 1176
  Aorta total cholesterin: 353
  Aorta total lipid: 1878
[1]; [2]
  Serum total lipid: 1903

## CCOC(=O)C(C)(C)Oc1ccc(Cl)cc1 [Chlofibrate, reference compound]
Normolyphaemic rats; 250 mg/kg p.o.
  Serum cholesterine: 63.9
  Serum triglyceride: 144.1
[1]; dose 250 mg/kg
  Serum triglyceride: 115
  Serum total cholesterin: 1137
  Aorta total cholesterin: 787
  Aorta total lipid: 2227
[1]; dose 250 mg/kg, Control-1 658, Control-2 2374
  Serum total lipid: 1938
[1]; test animals
  weight of the liver: increase the weight of the liver

## COC(=O)C=C1CCC(C)n2c1ncc(C(=O)OC)c2=O (centres unmarked) [H, 9-(methoxycarbonyl-methylene)-6-methyl-4-oxo-6,7,8,9-tetrahydro-4H-pyrido(1,2a)pyrimidine-3-carboxylic acid methylester]
Normolyphaemic rats; 50 mg/kg p.o.
  Serum cholesterine: 90.2
  Serum triglyceride: 107.9

## CCOC(=O)C1=CNC2C(CC(=O)O)CCCN2C1=O (centres unmarked) [F, 9-(carboxyl-methyl)-4-oxo-1,6,7,8,9,9a-hexahydro-4H-pyrido(1,2a)pyrimidine-3-carboxylic acid ethylester]
Normolyphaemic rats; 50 mg/kg p.o.
  Serum cholesterine: 88.0
  Serum triglyceride: 155.5

## CCOC(=O)C=C1CCCn2c1ncc(C(=O)OCC)c2=O [E, 9-(ethoxycarbonyl-methylene)-4-oxo-6,7,8,9-tetrahydro-4H-pyrido(1,2a)pyrimidine-3-carboxylic acid ethylester]
Normolyphaemic rats; 50 mg/kg p.o.
  Serum cholesterine: 86.5
  Serum triglyceride: 127.9
